The results in this text go back to article PMC434488 (BMC Biochemistry, 2004).

For test [1], the target named is S. cerevisiae carbamylphosphate synthetase – aspartate transcarbamylase multifunctional protein (CPSase-ATCase complex) (Saccharomyces cerevisiae, UniProt P07259, E2182K). The class given is biochemical.
The target of test [2] is S. cerevisiae carbamylphosphate synthetase – aspartate transcarbamylase multifunctional protein (CPSase-ATCase complex) (Saccharomyces cerevisiae, UniProt P07259). The class given is biochemical.
Chain of S. cerevisiae carbamylphosphate synthetase – aspartate transcarbamylase multifunctional protein (CPSase-ATCase complex) (Saccharomyces cerevisiae, UniProt P07259) (P07259 2-2214, one chain of several): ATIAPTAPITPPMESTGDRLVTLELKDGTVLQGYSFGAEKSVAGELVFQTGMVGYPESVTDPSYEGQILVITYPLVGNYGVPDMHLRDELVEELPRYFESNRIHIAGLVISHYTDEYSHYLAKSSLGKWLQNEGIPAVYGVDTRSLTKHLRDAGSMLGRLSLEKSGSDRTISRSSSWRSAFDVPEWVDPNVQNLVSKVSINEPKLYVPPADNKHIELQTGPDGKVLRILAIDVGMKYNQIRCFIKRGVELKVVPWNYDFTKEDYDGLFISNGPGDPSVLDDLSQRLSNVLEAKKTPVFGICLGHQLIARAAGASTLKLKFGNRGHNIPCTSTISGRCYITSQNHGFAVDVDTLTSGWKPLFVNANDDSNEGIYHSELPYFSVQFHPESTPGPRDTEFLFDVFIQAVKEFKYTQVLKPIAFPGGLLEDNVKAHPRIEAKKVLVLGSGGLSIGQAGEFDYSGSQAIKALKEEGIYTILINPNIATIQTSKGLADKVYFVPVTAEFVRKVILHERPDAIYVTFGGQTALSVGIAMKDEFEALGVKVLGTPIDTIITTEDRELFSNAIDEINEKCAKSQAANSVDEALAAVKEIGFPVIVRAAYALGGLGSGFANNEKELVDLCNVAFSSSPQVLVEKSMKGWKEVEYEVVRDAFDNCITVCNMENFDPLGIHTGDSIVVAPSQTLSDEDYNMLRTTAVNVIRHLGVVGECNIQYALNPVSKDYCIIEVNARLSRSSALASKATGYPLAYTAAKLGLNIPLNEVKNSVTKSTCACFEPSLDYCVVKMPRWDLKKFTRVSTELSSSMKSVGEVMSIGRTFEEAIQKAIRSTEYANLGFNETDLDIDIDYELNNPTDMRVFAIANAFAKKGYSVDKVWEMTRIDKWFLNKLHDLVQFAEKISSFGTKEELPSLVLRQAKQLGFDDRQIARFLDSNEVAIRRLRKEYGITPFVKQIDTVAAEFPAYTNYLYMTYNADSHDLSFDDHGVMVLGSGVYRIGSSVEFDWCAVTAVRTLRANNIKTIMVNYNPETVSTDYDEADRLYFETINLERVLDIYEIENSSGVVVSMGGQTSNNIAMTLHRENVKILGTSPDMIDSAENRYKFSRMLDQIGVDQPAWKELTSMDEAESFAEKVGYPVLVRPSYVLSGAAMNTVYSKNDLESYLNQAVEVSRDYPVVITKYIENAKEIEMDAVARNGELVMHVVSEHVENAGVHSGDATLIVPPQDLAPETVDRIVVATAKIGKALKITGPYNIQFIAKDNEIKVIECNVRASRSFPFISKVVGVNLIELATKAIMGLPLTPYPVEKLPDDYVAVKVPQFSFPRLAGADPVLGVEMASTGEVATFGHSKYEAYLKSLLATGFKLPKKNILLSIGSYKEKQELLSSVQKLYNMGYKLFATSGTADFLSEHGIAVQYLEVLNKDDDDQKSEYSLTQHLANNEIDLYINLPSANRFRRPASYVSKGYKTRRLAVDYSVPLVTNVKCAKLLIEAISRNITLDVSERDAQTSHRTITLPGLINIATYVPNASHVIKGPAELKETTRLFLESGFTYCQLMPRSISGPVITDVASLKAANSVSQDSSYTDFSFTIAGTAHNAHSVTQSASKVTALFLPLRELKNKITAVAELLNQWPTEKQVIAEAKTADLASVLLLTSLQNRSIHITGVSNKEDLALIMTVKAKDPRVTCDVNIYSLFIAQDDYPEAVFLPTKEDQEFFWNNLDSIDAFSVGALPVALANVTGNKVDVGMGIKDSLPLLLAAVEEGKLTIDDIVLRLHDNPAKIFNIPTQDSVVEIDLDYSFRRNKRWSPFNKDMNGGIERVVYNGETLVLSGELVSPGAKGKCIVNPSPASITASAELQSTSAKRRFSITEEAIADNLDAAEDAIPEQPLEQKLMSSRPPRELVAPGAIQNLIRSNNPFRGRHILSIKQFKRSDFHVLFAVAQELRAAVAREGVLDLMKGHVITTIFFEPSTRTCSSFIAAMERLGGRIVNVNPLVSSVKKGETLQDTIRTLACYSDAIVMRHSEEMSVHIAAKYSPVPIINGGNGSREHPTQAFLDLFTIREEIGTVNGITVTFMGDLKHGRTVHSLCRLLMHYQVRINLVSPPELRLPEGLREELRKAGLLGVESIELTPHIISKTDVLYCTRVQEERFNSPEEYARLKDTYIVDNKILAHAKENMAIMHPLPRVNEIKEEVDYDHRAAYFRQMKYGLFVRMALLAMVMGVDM

Chain of S. cerevisiae carbamylphosphate synthetase – aspartate transcarbamylase multifunctional protein (CPSase-ATCase complex) (Saccharomyces cerevisiae, UniProt P07259, E2182K) (P07259 2-2214 E2182K, one chain of several): as the sequence (P07259 2-2214, one chain of several) above, with E2181K counted along it

As usually defined, the Ki is a measure of affinity in units of concentration, obtained from inhibition or displacement. As usually defined, the IC50 is the concentration at which inhibition is half-maximal. A higher IC50 goes with a need for much substance. `O=c1ccn([C@@H]2O[C@H](COP(=O)(O)OP(=O)(O)OP(=O)(O)O)[C@@H](O)[C@H]2O)c(=O)[nH]1` [UTP]: the Ki in test [1] stood at 3000 ± 1000 µM. The compound further had an IC50 in test [2] of 800 µM.
